Laboratory results: ChEMBL document CHEMBL1201862, “PubChem BioAssay data set” (2004)
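These data come from cells grown in 96-well plates and exposed to compound for 48 hours at five concentrations. Abbreviation: GI50, concentration required for 50% inhibition of growth.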 Active and inactive are the calls of the source. Cut-off read from the data, not from the text of the source: active = GI50 up to about 1.1 µM and inactive = higher.

Experiments:
Experiment in all cases: NCI tumour cell line growth inhibition, 48 h
ACHN = tested on: ACHN
DU-145 = tested on: DU-145
HCT-15 = tested on: HCT-15
HOP-62 = tested on: HOP-62
HOP-92 = tested on: HOP-92
IGROV-1 = tested on: IGROV-1
MOLT-4 = tested on: MOLT-4
Malme-3M = tested on: Malme-3M
NCI-H23 = tested on: NCI-H23
NCI-H522 = tested on: NCI-H522
NCI/ADR-RES = tested on: NCI/ADR-RES
PC-3 = tested on: PC-3
RPMI-8226 = tested on: RPMI-8226
SK-MEL-5 = tested on: SK-MEL-5
SK-OV-3 = tested on: SK-OV-3
SNB-75 = tested on: SNB-75
SR = tested on: SR
U-251 = tested on: U-251
UACC-62 = tested on: UACC-62
UO-31 = tested on: UO-31

SMILES	GI50 (ACHN)	GI50 (DU-145)	GI50 (HCT-15)	GI50 (HOP-62)	GI50 (HOP-92)	GI50 (IGROV-1)	GI50 (MOLT-4)	GI50 (Malme-3M)	GI50 (NCI-H23)	GI50 (NCI-H522)	GI50 (NCI/ADR-RES)	GI50 (PC-3)	GI50 (RPMI-8226)	GI50 (SK-MEL-5)	GI50 (SK-OV-3)	GI50 (SNB-75)	GI50 (SR)	GI50 (U-251)	GI50 (UACC-62)	GI50 (UO-31)
CSc1nc2cc(S(=O)(=O)N3CCCCC3)ccc2s1	> 100 µM (inactive)	> 100 µM (inactive)	> 100 µM	57 µM (inactive)	> 100 µM (inactive)	> 100 µM (inactive)	> 100 µM (inactive)	> 100 µM (inactive)	> 100 µM (inactive)	79.1 µM (inactive)	> 100 µM (inactive)	> 100 µM (inactive)	> 100 µM (inactive)	> 100 µM (inactive)	> 100 µM (inactive)	61.4 µM (inactive)	> 100 µM (inactive)	> 100 µM (inactive)	> 100 µM (inactive)	> 100 µM (inactive)
CC(C)(CO[C@H]1C[C@H]2CC[C@@]1(C)C2(C)C)[N+](=O)[O-]	33.6 µM (inactive)	17.3 µM (inactive)	22.6 µM	19.5 µM (inactive)	14.6 µM (inactive)	30.8 µM (inactive)	18.1 µM (inactive)	20.3 µM (inactive)	25.9 µM (inactive)	20.4 µM (inactive)	27.9 µM (inactive)	20.9 µM (inactive)	17.7 µM (inactive)	17.3 µM (inactive)	29.1 µM (inactive)	19.4 µM (inactive)	5.25 µM (inactive)	16.7 µM (inactive)	19.9 µM (inactive)	12.5 µM (inactive)
COc1ccc(CCN2C(=O)C=CC2=O)cc1OC	1.77 µM (inactive)	16.5 µM (inactive)	1.87 µM	22.5 µM (inactive)	15.4 µM (inactive)	18 µM (inactive)	2.43 µM (inactive)	13.8 µM (inactive)	22 µM (inactive)	1.52 µM (inactive)	25.4 µM (inactive)	18.7 µM (inactive)	1.77 µM (inactive)	17.3 µM (inactive)	18.8 µM (inactive)	20.5 µM (inactive)	2.25 µM (inactive)	19.5 µM (inactive)	17.3 µM (inactive)	1.63 µM (inactive)
CN(C)CCCNC(=O)c1cc(NC(=O)c2cc(NS(=O)(=O)c3ccc4c(c3)C(=O)c3ccccc3C4=O)cn2C)cn1C	> 100 µM (inactive)	> 100 µM (inactive)	> 100 µM	> 100 µM (inactive)	> 100 µM (inactive)	> 100 µM (inactive)	24 µM (inactive)	28.4 µM (inactive)	> 100 µM (inactive)	93.5 µM (inactive)	> 100 µM (inactive)	> 100 µM (inactive)	21.5 µM (inactive)	29.2 µM (inactive)	< 0.01 µM (active)	> 100 µM (inactive)	27 µM (inactive)	81.3 µM (inactive)	89.9 µM (inactive)	> 100 µM (inactive)
C[N+]1(C(CO)Cc2c[nH]c3ccccc23)Cc2ccccc2C1 (stereo not given)	> 100 µM (inactive)	> 100 µM (inactive)	> 100 µM	> 100 µM (inactive)	92.5 µM (inactive)	> 100 µM (inactive)	> 100 µM (inactive)	13.7 µM (inactive)	> 100 µM (inactive)	49.3 µM (inactive)	> 100 µM (inactive)	> 100 µM (inactive)	76.6 µM (inactive)	32.6 µM (inactive)	> 100 µM (inactive)	> 100 µM (inactive)	> 100 µM (inactive)	> 100 µM (inactive)	> 100 µM (inactive)	> 100 µM (inactive)
O=C1/C(=C/c2ccccc2)CCc2ccc([N+](=O)[O-])cc21	40.4 µM (inactive)	> 72.3 µM (inactive)	39.7 µM	> 71.3 µM (inactive)	81.5 µM (inactive)	72.9 µM (inactive)	10.8 µM (inactive)	46.8 µM (inactive)	34.7 µM (inactive)	3.31 µM (inactive)	43.6 µM (inactive)	44.2 µM (inactive)	0.492 µM (active)	25.2 µM (inactive)	41 µM (inactive)	37.3 µM (inactive)	4.26 µM (inactive)	27.1 µM (inactive)	31 µM (inactive)	> 82.8 µM (inactive)
CNC(=O)CCC(NC(=O)OC(C)(C)C)C(=O)NC(Cc1ccc(NC(=O)CCCCC(C)=O)cc1)C(=O)NCC(=O)NC (stereo not given)	> 100 µM (inactive)	> 100 µM (inactive)	> 100 µM	> 100 µM (inactive)	> 100 µM (inactive)	> 100 µM (inactive)	> 100 µM (inactive)	> 100 µM (inactive)	> 100 µM (inactive)	> 100 µM (inactive)	> 100 µM (inactive)	> 100 µM (inactive)	> 100 µM (inactive)	> 100 µM (inactive)	> 100 µM (inactive)	> 100 µM (inactive)	> 100 µM (inactive)	> 100 µM (inactive)	> 100 µM (inactive)	> 100 µM (inactive)
Cc1nc(Nc2ccc(Cl)cc2Cl)sc1C(=O)Nc1ccccc1	36.1 µM (inactive)	> 100 µM (inactive)	74.1 µM	81.1 µM (inactive)	31.3 µM (inactive)	63.4 µM (inactive)	10.9 µM (inactive)	> 100 µM (inactive)	46 µM (inactive)	38.5 µM (inactive)	96.6 µM (inactive)	31 µM (inactive)	29.2 µM (inactive)	37.9 µM (inactive)	> 100 µM (inactive)	39 µM (inactive)	28.2 µM (inactive)	25.9 µM (inactive)	82.6 µM (inactive)	29.6 µM (inactive)
O=S(=O)(O)C(CO)c1ccccc1.O=S(=O)(O)Cc1ccccc1 (stereo not given)	> 100 µM (inactive)	> 100 µM (inactive)	> 100 µM	> 100 µM (inactive)	> 100 µM (inactive)	> 100 µM (inactive)	> 100 µM (inactive)	> 100 µM (inactive)	> 100 µM (inactive)	> 100 µM (inactive)	> 100 µM (inactive)	> 100 µM (inactive)	> 100 µM (inactive)	> 100 µM (inactive)	> 100 µM (inactive)	> 100 µM (inactive)	> 100 µM (inactive)	> 100 µM (inactive)	> 100 µM (inactive)	> 100 µM (inactive)
C[C@H]1CC(=O)C[C@@H]2CC[C@@H]3[C@H](CC[C@]4(C)C(OC(=O)c5cccc6c(=O)c7ccccc7[nH]c56)CC[C@@H]34)[C@]21C (stereo not given in full)	34.4 µM (inactive)	54.3 µM (inactive)	31.3 µM	36.6 µM (inactive)	16 µM (inactive)	38.5 µM (inactive)	5.28 µM (inactive)	92.5 µM (inactive)	30.6 µM (inactive)	18.7 µM (inactive)	20.4 µM (inactive)	14.8 µM (inactive)	11.1 µM (inactive)	16 µM (inactive)	16.3 µM (inactive)	31.1 µM (inactive)	4.8 µM (inactive)	33.1 µM (inactive)	21.6 µM (inactive)	24.2 µM (inactive)
CC(C)Cc1c(C#N)c(C#N)c(N)n1Cc1ccccc1	82.4 µM (inactive)	> 100 µM (inactive)	> 100 µM	> 100 µM (inactive)	> 100 µM (inactive)	> 100 µM (inactive)	> 100 µM (inactive)	> 100 µM (inactive)	> 100 µM (inactive)	> 100 µM (inactive)	> 100 µM (inactive)	> 100 µM (inactive)	> 100 µM (inactive)	> 100 µM (inactive)	> 100 µM (inactive)	40.8 µM (inactive)	> 100 µM (inactive)	> 100 µM (inactive)	55.5 µM (inactive)	> 100 µM (inactive)
CC(C)CC(=O)NC(Nc1ccc(S(=O)(=O)Nc2ncccn2)cc1)(C(F)(F)F)C(F)(F)F	> 100 µM (inactive)	> 100 µM (inactive)	> 100 µM	> 100 µM (inactive)	> 100 µM (inactive)	> 100 µM (inactive)	> 100 µM (inactive)	> 100 µM (inactive)	> 100 µM (inactive)	> 100 µM (inactive)	> 100 µM (inactive)	> 100 µM (inactive)	> 100 µM (inactive)	> 100 µM (inactive)	> 100 µM (inactive)	> 100 µM (inactive)	> 100 µM (inactive)	> 100 µM (inactive)	> 100 µM (inactive)	> 100 µM (inactive)
c1ccc(/N=C2\c3ccccc3CN2c2ccccc2)cc1	> 100 µM (inactive)	> 100 µM (inactive)	> 100 µM	> 100 µM (inactive)	46.5 µM (inactive)	> 100 µM (inactive)	> 100 µM (inactive)	> 100 µM (inactive)	> 100 µM (inactive)	> 100 µM (inactive)	> 100 µM (inactive)	> 100 µM (inactive)	> 100 µM (inactive)	> 100 µM (inactive)	> 100 µM (inactive)	74.3 µM (inactive)	> 100 µM (inactive)	> 100 µM (inactive)	> 100 µM (inactive)	> 100 µM (inactive)
CCC[C@H](O)[C@@H](CNc1cc(NC(C)=O)nc(NC(C)=O)n1)N(Cc1ccccc1)Cc1ccccc1	19.8 µM (inactive)	61.9 µM (inactive)	31.7 µM	15.2 µM (inactive)	34.4 µM (inactive)	12.8 µM (inactive)	4.47 µM (inactive)	26.1 µM (inactive)	17.1 µM (inactive)	8.75 µM (inactive)	19.3 µM (inactive)	13.5 µM (inactive)	46.2 µM (inactive)	20.9 µM (inactive)	19.8 µM (inactive)	13.2 µM (inactive)	49.5 µM (inactive)	47 µM (inactive)	18.3 µM (inactive)	18.1 µM (inactive)
